Values joined by “and” are separate entries in the source; they are usually repeats but may differ in a detail not shown here. Equal entries are not always repeated.
Legend:
[1] = target: DRD2 (D2 long receptor) wild-type (Homo sapiens, UniProt P14416); assay: Radioligand competition binding, [3H]-N-methylspiperone, HEK293T membranes; conditions: DRD2; [3H]-methylspiperone (0.8-1.0 nM); read-out: Ki
DRD3 wild-type = DRD3 wild-type (Homo sapiens, UniProt P35462); assay: Radioligand competition binding, [3H]-N-methylspiperone
DRD3 wild-type, sequence (P35462 whole entry): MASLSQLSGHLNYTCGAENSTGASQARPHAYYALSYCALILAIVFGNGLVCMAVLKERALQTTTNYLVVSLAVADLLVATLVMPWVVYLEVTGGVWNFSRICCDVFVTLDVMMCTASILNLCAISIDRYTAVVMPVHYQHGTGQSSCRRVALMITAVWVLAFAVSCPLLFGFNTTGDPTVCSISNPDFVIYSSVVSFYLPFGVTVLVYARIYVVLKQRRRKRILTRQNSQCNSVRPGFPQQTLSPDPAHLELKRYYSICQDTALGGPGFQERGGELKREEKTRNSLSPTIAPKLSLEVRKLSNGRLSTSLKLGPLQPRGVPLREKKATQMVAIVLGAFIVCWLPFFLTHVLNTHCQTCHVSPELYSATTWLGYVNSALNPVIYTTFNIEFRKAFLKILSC

[2] = target: T1, DRD4 (D4.4 variant) wild-type (Homo sapiens, UniProt P21917); assay: as above; conditions: DRD4; [3H]-methylspiperone (0.8-1.0 nM); read-out: Ki
T1 sequence (P21917 1-419): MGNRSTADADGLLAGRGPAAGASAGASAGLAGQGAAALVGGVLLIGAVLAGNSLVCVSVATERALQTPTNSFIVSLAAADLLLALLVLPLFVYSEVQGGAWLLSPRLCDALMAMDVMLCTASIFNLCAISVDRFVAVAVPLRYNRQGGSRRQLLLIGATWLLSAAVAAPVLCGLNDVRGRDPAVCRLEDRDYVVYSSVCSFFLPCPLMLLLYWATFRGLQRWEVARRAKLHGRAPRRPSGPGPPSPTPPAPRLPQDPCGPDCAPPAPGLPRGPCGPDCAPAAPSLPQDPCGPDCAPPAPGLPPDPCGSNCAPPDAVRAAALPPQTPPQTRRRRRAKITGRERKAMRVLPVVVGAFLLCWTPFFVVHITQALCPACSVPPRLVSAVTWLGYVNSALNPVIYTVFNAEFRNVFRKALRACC

DRD3 F1063.28A [3] = target: T2, DRD3 F1063.28A (Homo sapiens, UniProt P35462, F106A); assay: biochemical; format: binding; conditions: DRD3 F1063.28A; read-out: Ki
T2 sequence (P35462 whole entry F106A): as the sequence (P35462 whole entry) above, with F106A counted along it

DRD2 (D2 long receptor) [4] = target: T3, DRD2 (D2 long receptor) (Homo sapiens, UniProt P14416); assay: Gαi/o-mediated cAMP inhibition (GloSensor split-luciferase cAMP reporter), HEK293T; format: cell-based; conditions: for response, Fig_S11d dose-response source data: replicate values;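 as to all read-outs here: compounds applied 15 min at room temperature, then luciferin plus 400 nM isoproterenol to raise cAMP through endogenous β2-adrenergic receptors, luminescence read 15 min later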
T3 sequence (P14416 whole entry): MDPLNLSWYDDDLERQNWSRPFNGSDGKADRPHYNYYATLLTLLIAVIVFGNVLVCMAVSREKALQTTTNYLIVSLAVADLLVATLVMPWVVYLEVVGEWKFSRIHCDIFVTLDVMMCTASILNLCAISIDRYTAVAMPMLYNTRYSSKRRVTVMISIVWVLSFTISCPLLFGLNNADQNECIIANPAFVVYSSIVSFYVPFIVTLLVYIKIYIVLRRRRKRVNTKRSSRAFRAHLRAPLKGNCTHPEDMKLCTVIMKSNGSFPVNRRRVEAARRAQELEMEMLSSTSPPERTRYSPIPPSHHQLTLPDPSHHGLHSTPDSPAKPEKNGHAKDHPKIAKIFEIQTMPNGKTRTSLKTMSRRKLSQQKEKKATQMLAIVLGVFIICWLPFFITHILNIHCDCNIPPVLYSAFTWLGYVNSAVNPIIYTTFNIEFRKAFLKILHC

DRD4 (D4.4 variant) [5] = target: T4, DRD4 (D4.4 variant) (Homo sapiens, UniProt P21917); assay: Gαi/o-mediated cAMP inhibition (GloSensor); format: cell-based; conditions: DRD4; agonist, cAMP inhibition; read-out: EC50 ± SEM
T4 sequence (P21917 1-419): T1 sequence (P21917 1-419)

DRD2 F1103.28L [6] = target: T5, DRD2 F1103.28L (Homo sapiens, UniProt P14416, F110L); assay: Gαi/o-mediated cAMP inhibition (GloSensor), mutant; format: cell-based; conditions: DRD2 F1103.28L (b138 head prints DRD2 F1063.28L)
T5 construct: expressed in transfected cells; host or cells: HEK293T (ATCC CRL-11268)
T5 sequence (P14416 whole entry F110L): as the sequence (P14416 whole entry) above, with F110L counted along it

DRD2 (D2 long receptor) [7] = target: T3, DRD2 (D2 long receptor); assay: β-arrestin2 recruitment (Tango), HTLA cells; format: cell-based; conditions: for response, Fig_S11e dose-response source data: replicate values
DRD3 = DRD3 (Homo sapiens, UniProt P35462); assay: β-arrestin2 recruitment (Tango); format: cell-based; conditions: DRD3; Tango; read-out: EC50 ± SEM
DRD3, sequence (P35462 whole entry): as the sequence (P35462 whole entry) above

DRD4 (D4.4 variant) [8] = target: T4, DRD4 (D4.4 variant); assay: β-arrestin2 recruitment (Tango); format: cell-based; conditions: DRD4; Tango; read-out: EC50 ± SEM
DRD2 F1103.28L [9] = target: T5, DRD2 F1103.28L; assay: β-arrestin2 recruitment (Tango), mutant; format: cell-based
DRD3 F1063.28A [10] = target: T2, DRD3 F1063.28A; assay: cell-based; format: cell-based; conditions: DRD3 F1063.28A; Tango; read-out: EC50 ± SEM
DRD2 F1103.28A [11] = target: T6, DRD2 F1103.28A (Homo sapiens, UniProt P14416, F110A); format: binding; set-up: expressed in transfected cells; host or cells: HEK293T (ATCC CRL-11268); conditions: DRD2 F1103.28A; read-out: Ki
T6 sequence (P14416 whole entry F110A): as the sequence (P14416 whole entry) above, with F110A counted along it

DRD2 F1103.28A [12] = target: T6, DRD2 F1103.28A; assay: Gαi/o-mediated cAMP inhibition (GloSensor), mutant; format: cell-based; set-up: expressed in transfected cells; host or cells: HEK293T (ATCC CRL-11268)
DRD2 F1103.28A [13] = target: T6, DRD2 F1103.28A; assay: β-arrestin2 recruitment (Tango), mutant; format: cell-based; set-up: expressed in transfected cells; host or cells: HEK293T (ATCC CRL-11268)

DRD2 (D2 long receptor) wild-type, sequence (P14416 whole entry): as the sequence (P14416 whole entry) above

CCOc1cccc2cc(C(C)NCC3(O)CCC3)oc12.Cl (centres unmarked) [O4LE4]
Ki [1]: > 10 µM
Ki (DRD3 wild-type; DRD3, [3H]-methylspiperone (0.8-1.0 nM), read-out: Ki): 4.07 µM
pKi ± SEM (DRD3 wild-type; DRD3 wild-type): 5.39±0.09
Ki [2]: > 10 µM
Ki (DRD3 F1063.28A [3]): > 10 µM
EC50 (DRD2 (D2 long receptor) [4]; DRD2, agonist, Gαi/o-mediated cAMP inhibition, read-out: EC50 ± SEM): > 10 µM
response, Fig_S11d dose-response source data (DRD2 (D2 long receptor) [4]; Log[Drug] -5): 88.7746 and 78.3782 and 91.7272 and 89.26 and 93.9579 and 91.5672
response, Fig_S11d dose-response source data (DRD2 (D2 long receptor) [4]; Log[Drug] -5.52): 76.2939 and 86.2437 and 82.5466 and 72.7587 and 77.8913 and 84.3113
response, Fig_S11d dose-response source data (DRD2 (D2 long receptor) [4]; Log[Drug] -6): 73.2172 and 67.3366 and 60.3892 and 68.228 and 67.275 and 64.901
response, Fig_S11d dose-response source data (DRD2 (D2 long receptor) [4]; Log[Drug] -6.52): 64.6321 and 59.5207 and 69.0487 and 71.8726 and 63.9982 and 65.6366
response, Fig_S11d dose-response source data (DRD2 (D2 long receptor) [4]; Log[Drug] -7): 48.9755 and 46.0724 and 53.9876 and 53.6995 and 51.8772 and 46.0423
response, Fig_S11d dose-response source data (DRD2 (D2 long receptor) [4]; Log[Drug] -7.52): 42.028 and 41.6806 and 36.1226 and 35.9109 and 33.9715 and 35.5263
response, Fig_S11d dose-response source data (DRD2 (D2 long receptor) [4]; Log[Drug] -8): 31.6316 and 34.088 and 41.4325 and 32.2829 and 31.564 and 29.1733
response, Fig_S11d dose-response source data (DRD2 (D2 long receptor) [4]; Log[Drug] -8.52): 10.5658 and 5.306 and 29.9195 and 26.7491 and 32.2996 and 23.9905
response, Fig_S11d dose-response source data (DRD2 (D2 long receptor) [4]; Log[Drug] -9): 29.0014 and 17.2156 and 19.2005 and 25.2611
response, Fig_S11d dose-response source data (DRD2 (D2 long receptor) [4]; Log[Drug] -9.52): 13.8163 and 7.489 and 22.6246 and 25.1441 and 33.3529 and 8.96
response, Fig_S11d dose-response source data (DRD2 (D2 long receptor) [4]; Log[Drug] -10): 3.445 and 9.573 and 23.9738 and 15.1965 and 19.209
response, Fig_S11d dose-response source data (DRD2 (D2 long receptor) [4]; Log[Drug] -10.52): 10.9876 and 14.9328 and 18.3073 and 10.6825 and 15.9488
response, Fig_S11d dose-response source data (DRD2 (D2 long receptor) [4]; Log[Drug] -11): 8.655 and 3.048 and 14.6949 and 5.45 and 17.0857
response, Fig_S11d dose-response source data (DRD2 (D2 long receptor) [4]; Log[Drug] -11.52): 13.0471 and 8.407 and 20.4163
response, Fig_S11d dose-response source data (DRD2 (D2 long receptor) [4]; Log[Drug] -12): 4.834 and -8.7134 and -10.8678 and -0.937
EC50 (DRD4 (D4.4 variant) [5]): > 10 µM
EC50 (DRD2 F1103.28L [6]): > 10 µM
Emax relative to quinpirole response (DRD2 (D2 long receptor) [7]; DRD2, Tango): 31.72%
EC50 (DRD2 (D2 long receptor) [7]; DRD2, β-arrestin2 recruitment (Tango), read-out: EC50 ± SEM): 4.89 ± 0.671 µM
response, Fig_S11e dose-response source data (DRD2 (D2 long receptor) [7]; Log[Drug] -6.52): 6.042
response, Fig_S11e dose-response source data (DRD2 (D2 long receptor) [7]; Log[Drug] -7): 4.575 and 5.092 and 4.213 and 4.207 and 4.48
response, Fig_S11e dose-response source data (DRD2 (D2 long receptor) [7]; Log[Drug] -7.52): 3.784 and 4.2108 and 4.594 and 4.116 and 3.67
response, Fig_S11e dose-response source data (DRD2 (D2 long receptor) [7]; Log[Drug] -8): 3.831 and 3.706 and 4.29 and 4.002 and 5.34
response, Fig_S11e dose-response source data (DRD2 (D2 long receptor) [7]; Log[Drug] -8.52): 4.064 and 3.966 and 4.203 and 4.282 and 4.286
response, Fig_S11e dose-response source data (DRD2 (D2 long receptor) [7]; Log[Drug] -9): 3.882 and 3.744 and 4.042 and 3.918 and 3.839
response, Fig_S11e dose-response source data (DRD2 (D2 long receptor) [7]; Log[Drug] -9.52): 3.68 and 4.032 and 4.215 and 3.926 and 3.7929
response, Fig_S11e dose-response source data (DRD2 (D2 long receptor) [7]; Log[Drug] -10): 3.326 and 3.898 and 4.025 and 3.996
response, Fig_S11e dose-response source data (DRD2 (D2 long receptor) [7]; Log[Drug] -10.52): 3.698 and 4.067 and 4.341 and 4.225 and 3.808
response, Fig_S11e dose-response source data (DRD2 (D2 long receptor) [7]; Log[Drug] -11): 4.084 and 3.675 and 4.011 and 3.975 and 3.611
response, Fig_S11e dose-response source data (DRD2 (D2 long receptor) [7]; Log[Drug] -11.52): 3.79 and 4.079 and 4.55 and 4.262 and 4.155
response, Fig_S11e dose-response source data (DRD2 (D2 long receptor) [7]; Log[Drug] -12): 5.029 and 3.661 and 4.455 and 4.071 and 4.046
EC50 (DRD3): > 10 µM
EC50 (DRD4 (D4.4 variant) [8]): > 10 µM
EC50 (DRD2 F1103.28L [9]): > 10 µM
EC50 (DRD3 F1063.28A [10]): > 10 µM
Ki (DRD2 F1103.28A [11]): > 10 µM
EC50 (DRD2 F1103.28A [12]): > 10 µM
EC50 (DRD2 F1103.28A [13]): > 10 µM

From PMC7044277 (Nature Communications, 2020)
